Test results as given in paper PMC9610999, “Itraconazole-Induced Increases in Gilteritinib Exposure Are Mediated by CYP3A and OATP1B” (Molecules, 2022).
Where two headings read alike, the source gives them in different places.

Tests used:
[1] = set-up: method as in PMID 32546970; details: rats; cited from earlier work
OATP1B1 = target: T1, OATP1B1 (Homo sapiens, UniProt Q9Y6L6); assay: Competitive counterflow assay with ACE in OATP1B1 overexpressing HEK293 cells; assay type: cell-based; details: gilteritinib 0.1–20 μM, 5 μM ACE, normalized to ACE alone
T1 construct: expressed in transfected cells; host or cells: HEK293
T1 sequence (Q9Y6L6 1-691): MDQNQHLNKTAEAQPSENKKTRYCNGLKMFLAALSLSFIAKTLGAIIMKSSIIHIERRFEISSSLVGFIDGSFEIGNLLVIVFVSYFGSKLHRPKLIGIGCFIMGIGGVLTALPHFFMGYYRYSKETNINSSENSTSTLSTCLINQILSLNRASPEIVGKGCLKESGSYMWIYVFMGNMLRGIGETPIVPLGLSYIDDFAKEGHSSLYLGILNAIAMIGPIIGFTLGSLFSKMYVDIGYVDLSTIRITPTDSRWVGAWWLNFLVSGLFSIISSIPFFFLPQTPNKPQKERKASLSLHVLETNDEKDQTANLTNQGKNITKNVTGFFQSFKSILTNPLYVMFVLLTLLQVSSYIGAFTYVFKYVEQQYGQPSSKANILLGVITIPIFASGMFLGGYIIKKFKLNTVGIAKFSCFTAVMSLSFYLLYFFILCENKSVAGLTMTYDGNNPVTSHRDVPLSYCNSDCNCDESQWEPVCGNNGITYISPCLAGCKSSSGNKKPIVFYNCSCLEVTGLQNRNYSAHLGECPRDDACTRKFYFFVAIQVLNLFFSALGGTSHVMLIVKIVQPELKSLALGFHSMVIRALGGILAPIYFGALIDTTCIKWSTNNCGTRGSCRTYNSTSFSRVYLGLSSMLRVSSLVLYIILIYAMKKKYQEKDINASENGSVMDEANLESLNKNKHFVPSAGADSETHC
Procedure: OATP1B1 overexpressing cells or vector control were seeded in 96-well plates in 200 μL DMEM and incubated for 24 h. The medium was aspirated off and the cells were washed three times with PBS at room temperature. The cells were then treated with 100 μL of 5 μM ACE and incubated at 37 °C for 15 min in uptake buffer. The supernatant was aspirated off and 100 μL of 5 μM ACE alone or in combination with DMSO or gilteritinib (0.1–20 μM) in uptake buffer were added to the cells. The plates were further incubated for 20 min at 37 °C. The supernatant was removed, and the cells were washed three times with 200 μL of ice-cold PBS. Lastly, 200 μL of 0.1 N NaOH was added to cells and incubated for 20 min at room temperature. Fluorescence was measured on a plate reader at excitation and emission wavelengths of 460 and 510 nm, respectively. The intracellular concentrations of ACE were calculated by comparison of fluorescence values observed with control samples incubated with ACE alone, which were set to 100%.

[2] = Plasma pharmacokinetics of oral gilteritinib in mice, with or without itraconazole pretreatment; assay type: in vivo; details: for Cmax / AUC(0-t): male, mouse, plasma, po, 10 mg/kg, gilteritinib 10 mg/kg p.o., mean (SD); for AUC(0-t): read-out: Gilteritinib AUC0–24h
Source text: Male and female CYP3A(−/−) mice and age- and sex-matched wild-type mice on an FVB/NTac (CYP3A(+/+)) background were bred in-house. Male OATP1B2(−/−) mice and age and sex-matched wild-type mice on a DBA1/lacJ (OATP1B2(+/+)) background were bred in-house. All mice were aged 8–16 weeks and weighed 18–30 g. Littermates of the same sex were housed in groups of five or fewer in a temperature- and light-controlled environment (12-h light/dark cycles) in cages lined with absorbent bedding. Mice were given free access to standard food and water. All breeding and experimental procedures were conducted with the approval of the University Laboratory Animal Resources Animal Care and Use Committee at The Ohio State University under protocol number 201500000101-R2.
For in vivo pharmacokinetic studies, mice were randomly divided into experimental groups of equal size. Gilteritinib powder was dissolved in 0.5% methylcellulose solution in distilled sterile water at a concentration of 2 mg/mL and was administered via oral gavage at a body weight normalized dose of 10 mg/kg. The dose of gilteritinib was chosen based on previous preclinical characterization of gilteritinib pharmacokinetics. Itraconazole powder was dissolved in a solvent comprised of 5% DMSO, 70% PEG300, and 25% distilled sterile water and administered orally at a dose of 100 mg/kg. The dose of itraconazole was based on previous work studying preclinical DDI with itraconazole. For combination treatments, itraconazole was always given 30 min prior to gilteritinib.
Pharmacokinetic studies were performed in accordance with a repeat sampling strategy described previously. After a single dose of gilteritinib, 20–40 μL of whole blood samples were collected from each mouse at time points ranging from 0.5–24 h after dosing. Samples procured during the first three time points were collected from the submaxillary vein using a sterile, disposable 4 mm or 5 mm Goldenrod animal blood lancet and collected into a glass micro-hematocrit heparinized capillary tube. For samples obtained at the fourth and fifth time points, the mice were sedated using 2% isoflurane and whole blood was obtained via the retro-orbital venous plexus. At the final time point, mice were euthanized via carbon dioxide inhalation, whole blood was collected by cardiac puncture with a needle and 1-mL syringe and transferred to a 1.5-mL heparinized tube. All samples were centrifuged at 13,000× g for 5 min and the plasma supernatant was transferred to a 0.5-mL tube, snap-frozen on dry ice, and stored at −80 °C until the day of analysis.
Pharmacokinetic parameters were estimated using non-compartmental analyses using Phoenix WinNonlin version 8.1 (Certara, Princeton, NJ, USA). Estimated measures of exposure included the peak plasma concentration (Cmax) and the area under the plasma concentration–time curve (AUC).

[3] = CYP3A(−/−) on FVB/NTac background, CYP3A(−/−) male mice, itraconazole 100 mg/kg 30 min before
[4] = CYP3A(−/−) on FVB/NTac background, CYP3A(−/−) male mice, no co-treatment
[5] = DBA/1J (wild-type), Wild-type DBA/1J male mice, no co-treatment
[6] = FVB (wild-type), Wild-type FVB male mice, itraconazole 100 mg/kg 30 min before
[7] = FVB (wild-type), Wild-type FVB male mice, no co-treatment
[8] = OATP1B2(−/−) on DBA1/lacJ background, OATP1B2(−/−) male mice, itraconazole 100 mg/kg 30 min before
[9] = OATP1B2(−/−) on DBA1/lacJ background, OATP1B2(−/−) male mice, no co-treatment, experiment compared with itraconazole co-treatment
[10] = OATP1B2(−/−) on DBA1/lacJ background, OATP1B2(−/−) male mice, no co-treatment, experiment compared with wild-type DBA/1J

SMILES: CCc1nc(C(N)=O)c(Nc2ccc(N3CCC(N4CCN(C)CC4)CC3)c(OC)c2)nc1NC1CCOCC1 [Gilteritinib]
- Increase in gilteritinib exposure by itraconazole [1]: 1.4 fold
- Effect on fluorescent signal of ACE in cells (competitive counterflow; transported substrate) (OATP1B1): decreased the fluorescent signal in cells in a concentration-dependent manner
- Gilteritinib AUC Fold Increase ([2]; CYP3A(−/−) mice, no co-treatment, vs. WT): 1.3 (vs. WT) fold
- Gilteritinib AUC Fold Increase ([2]; CYP3A(−/−) mice, no co-treatment, vs. WT, listed as gilteritinib): 1.3 fold
- Gilteritinib AUC Fold Increase ([2]; CYP3A(−/−) mice, with itraconazole 100 mg/kg vs. Vehicle): 0.97 (vs. Vehicle) fold
- Gilteritinib AUC Fold Increase ([2]; OATP1B2(−/−) mice, no co-treatment, vs. WT): 1.4 (vs. WT) fold
- Gilteritinib AUC Fold Increase ([2]; OATP1B2(−/−) mice, no co-treatment, vs. WT, listed as gilteritinib): 1.4 fold
- Gilteritinib AUC Fold Increase ([2]; OATP1B2(−/−) mice, with itraconazole 100 mg/kg vs. Vehicle): 0.84 (vs. Vehicle) fold
- Gilteritinib AUC Fold Increase ([2]; Wild-type FVB mice, with itraconazole 100 mg/kg vs. Vehicle): 2.5 (vs. Vehicle) fold
- Gilteritinib AUC Fold Increase ([2]; Wild-type FVB mice, with itraconazole 100 mg/kg vs. Vehicle, listed as gilteritinib): about 2.5 fold
- Cmax [2, 3]: 430 ng/mL
- AUC(0-t) [2, 3]: 5840 ng·h/mL
- Cmax [2, 4]: 380 ng/mL
- AUC(0-t) [2, 4]: 5990 ng·h/mL
- Cmax [2, 5]: 260 ng/mL
- AUC(0-t) [2, 5]: 4550 ng·h/mL
- Cmax [2, 6]: 960 ng/mL
- AUC(0-t) [2, 6]: 11500 ng·h/mL
- Cmax [2, 7]: 310 ng/mL
- AUC(0-t) [2, 7]: 4650 ng·h/mL
- Cmax [2, 8]: 1350 ng/mL
- AUC(0-t) [2, 8]: 15000 ng·h/mL
- Cmax [2, 9]: 1430 ng/mL
- AUC(0-t) [2, 9]: 17800 ng·h/mL
- Cmax [2, 10]: 390 ng/mL
- AUC(0-t) [2, 10]: 6160 ng·h/mL
